{"source": "patent US20200276150A1", "about": "“PARENTERAL FORMULATIONS OF MACROLIDE ANTIBIOTICS” (Tetard, Inc., priority 2010, published 2020)", "test": "HPLC assay and impurity levels, autoclaved and non-autoclaved samples (Example 7)", "assay_type": "physicochemical", "settings": "standard, no condition given", "protocol": "EXAMPLE 7. Characterization of Unbuffered Formulation C Solutions with Nitrogen […] and with the Inclusion of an Antioxidant with or without a Chelating Agent. Development studies were conducted using Formulation C, Example C, and its corresponding placebo formulation. The table below details the composition of Formulation C active formulation and corresponding placebo. The solutions above were prepared by first dissolving the stabilizers in the vehicle (60 mM Tartaric acid) which was pre-prepared in nitrogen sparged water. Once dissolved, the CEM-101 API was then added slowly and allowed to mix until a complete solution was achieved. Formulations prepared were then filled into vials, crimped with an aluminium cap containing a PTFE septum and then autoclaved. Each vial was nitrogen purged prior to crimping. HPLC analyses were performed on both autoclaved and non-autoclaved samples. Refer to results in the table below for summary data on assay and impurities."}
{"smiles": "CC[C@H]1OC(=O)[C@@](C)(F)C(=O)[C@H](C)[C@@H](O[C@@H]2O[C@H](C)C[C@H](N(C)C)[C@H]2O)[C@@](C)(OC)C[C@@H](C)C(=O)[C@H](C)[C@H]2N(CCCCn3cc(-c4cccc(N)c4)nn3)C(=O)O[C@]12C", "note": "[STD 0.5 mg/mL]", "values": [{"measurement": "Total Impurities", "result": 1.867}]}
